Assay type in all cases: cell-based
The subject of assay [1] is MCF-7 breast cancer cells. Description: MTT assay, cell viability of MCF-7 breast cancer cells. The conditions noted are these: Homo sapiens, MCF7; MCF-7 cells, 24 hours of treatment. Here is the method: An MTT assay was performed with the FAS inhibiting compounds of Formulae II, III, IV and V (e.g., Compound 1A) on MCF-7 breast cancer cells, with an IC50 of about […] after 24 hours of treatment. The results are illustrated in FIG. 2.
(§1) Antiproliferative effect of FAS inhibitors on MCF-7 cells was determined by performing MTT assay. Roughly, 10,000 cells per well were plated in 96-well cell culture microplate (Costar, USA) and incubated overnight in full media (DMEM containing 10% FBS) for cells to adhere to the plate. Cells were then treated with various concentrations of inhibitors and vehicle for 24 hrs in serum free media. Cell viability was evaluated by the MTT (Sigma-Aldrich, St. Louis, Mont.) assay. The absorbance of solubilized formazan was read at 570 nm using ELISA reader (Bio-TEK, Synergy-1).
(In general: Formazan colour is commonly taken as a measure of viable cells.)

The test system of assay [2] is H460 lung cancer cells. Kind of assay: MTT assay, cell viability of H460 lung cancer cells. How it is done: as §1
(§2) We treated H460 lung cancer cells, MDA-MB-231 breast cancer cells, and PC-3 prostate cancer cells with the FAS inhibitor, Compound 1A.

For assay [3], the system named is MDA-MB-231 breast cancer cells. Description: MTT assay, cell viability of MDA-MB-231 breast cancer cells. The conditions noted are these: MDA-MB-231 cells. Here is the method:
as §1, §2

Assay [4] has as its system PC-3 prostate cancer cells. Description: MTT assay, cell viability of PC-3 prostate cancer cells. The following applies: PC-3 cells. How it is done: Antiproliferative effect of FAS inhibitors on MCF-7 cells was determined by performing MTT assay. Roughly, 10,000 cells per well were plated in 96-well cell culture microplate (Costar, USA) and incubated overnight in full media (DMEM containing 10% FBS) for cells to adhere to the plate. […] Cell viability was evaluated by the MTT (Sigma-Aldrich, St. Louis, Mont.) assay. The absorbance of solubilized formazan was read at 570 nm using ELISA reader (Bio-TEK, Synergy-1).
as §2

Each structure is given as a SMILES string.

`CCCCCCCCCCCCCCCCOC(=O)CCn1cc(Br)c(=O)[nH]c1=O` [Compound 1A, Hexadecyl 3-(5-bromo-2,4-dioxo-3,4-dihydropyrimidin-1(2H)-yl)propanoate]: in assay [1], the IC50 (as a rule, the concentration needed to halve the response being measured) is approximately 10 µM. For the same compound, the “cell viability (MTT)” value is on record as “significantly reduced the viability” in assay [2] (24-hr treatment (FIG. 4: 10 μM)), “significantly reduced the viability” in assay [3] (24-hr treatment (FIG. 5: 10 μM)) and “reduced the viability” in assay [4] (72-hr treatment (FIG. 6B: 10 μM)).
Regarding `O=C(CCn1cc(Br)c(=O)[nH]c1=O)OCCO` [5-Bromouracil ester, 2-Hydroxyethyl3-(5-bromo-2,4-dioxo-3,4-dihydropirimidin-1(2H)-yl)propanoate], the “anticancer effect (MTT assay), fragment alone” value in assay [2], in assay [3] and in assay [4] was “no anticancer effect” in each case.
Consider `O=c1[nH]cc(Br)c(=O)[nH]1` [5-Bromouracil], for which the “anticancer effect (MTT assay), fragment alone” value in assay [2], in assay [3] and in assay [4] was “no anticancer effect” throughout.

These data come from patent publication US10556872B2, “Fatty acid synthase inhibitors and methods of use” (Hampton University, priority 2017, dated 2020).
